Data as given in patent publication US9458414B2, “Cleaning, surfactant, and personal care compositions” (SEGETIS, INC., priority 2012, dated 2016).

Assays:
Format in all cases: physicochemical
[1] = Coupling of water and octanoic acid by hydrotropes (amount producing a single phase)
Protocol: Hydrotropes were added to a two-component mixture of octanoic acid and deionized (DI) water to find the amount that produced a single phase from the two separate phases of water and octanoic acid.
The percent hydrotrope required to compatibilize phases (and the resulting percent octanoic acid) were calculated and the results are shown in Table 4 as well as FIG. 1.

[2] = Hard surface cleaning formulation freeze-thaw testing; details: for Freeze-thaw visual observation: Example 5 formulation containing the solvent, 0° C. freezer >12 hours, thaw to room temperature
Protocol: Formulations as in Example 5 were prepared by combining ingredients and mixing until homogeneous. Freeze-thaw testing was performed over 3 cycles. Each cycle was putting the formulations into a 0° C. freezer for greater than 12 hours, then taking them out and allowing the samples to thaw to room temperature and then making the visual observation.

[3] = Hard surface cleaning formulation heat cloud point testing; details: Example 5 formulation containing the solvent; for Cloud point: heated while mixing
Protocol: Formulations as in Example 5 were prepared by combining ingredients and mixing until homogeneous.

[4] = Coupling of water and soy methyl ester by hydrotropes
Protocol: Hydrotropes were added to a two-component mixture of soy methyl ester and DI water to find the amount that produced a single phase from the two separate phases of water and soy methyl ester. The percent hydrotrope required to compatibilize the phases was calculated.

[5] = Coupling of water and castor oil by hydrotropes
[6] = Hard surface cleaning formulation pH testing over 7 days; details: 5 g solvent per 100 g
Protocol: Formulations were prepared by combining ingredients and mixing until homogeneous. Next, pH measurements were taken over 7 days.

[7] = ratio of water:octanoic acid 10:90
[8] = ratio of water:octanoic acid 30:70
[9] = ratio of water:octanoic acid 50:50
[10] = ratio of water:octanoic acid 70:30
[11] = ratio of water:octanoic acid 90:10
[12] = water:octanoic acid 10:90 (DI water 0.5 g, octanoic acid 4.5 g)
[13] = water:octanoic acid 30:70 (DI water 1.5 g, octanoic acid 3.5 g)
[14] = water:octanoic acid 50:50 (DI water 5.0 g, octanoic acid 5.0 g)
[15] = water:octanoic acid 70:30 (DI water 3.5 g, octanoic acid 1.5 g)
[16] = water:octanoic acid 90:10 (DI water 4.5 g, octanoic acid 0.5 g)
[17] = ratio of water:soy methyl esters 10:90
[18] = ratio of water:soy methyl esters 30:70
[19] = ratio of water:soy methyl esters 50:50
[20] = ratio of water:soy methyl esters 70:30
[21] = ratio of water:soy methyl esters 90:10
[22] = ratio of water to castor oil 10:90
[23] = ratio of water to castor oil 30:70
[24] = ratio of water to castor oil 50:50
[25] = ratio of water to castor oil 70:30
[26] = ratio of water to castor oil 90:10

SMILES: CCCCOCCO [2-butoxyethanol]
- Wt % Hydrotrope required to compatibilize phases [1, 7]: 33%
- Wt % Octanoic Acid (resulting, at compatibilization) [1, 7]: 60%
- Wt % Hydrotrope required to compatibilize phases [1, 8]: 52%
- Wt % Octanoic Acid (resulting, at compatibilization) [1, 8]: 34%
- Wt % Hydrotrope required to compatibilize phases [1, 9]: 57%
- Wt % Octanoic Acid (resulting, at compatibilization) [1, 9]: 21%
- Wt % Hydrotrope required to compatibilize phases [1, 10]: 61%
- Wt % Octanoic Acid (resulting, at compatibilization) [1, 10]: 12%
- Wt % Hydrotrope required to compatibilize phases [1, 11]: 52%
- Wt % Octanoic Acid (resulting, at compatibilization) [1, 11]: 5%
- Amount of hydrotrope that produced a single phase [1, 12]: 2.47 grams
- Amount of hydrotrope that produced a single phase [1, 13]: 5.39 grams
- Amount of hydrotrope that produced a single phase [1, 14]: 6.74 grams
- Amount of hydrotrope that produced a single phase [1, 15]: 7.9 grams
- Amount of hydrotrope that produced a single phase [1, 16]: 5.43 grams
- Freeze-thaw visual observation ([2]; Cycle 1): separation;
- Freeze-thaw visual observation ([2]; Cycle 2): separation;
- Freeze-thaw visual observation ([2]; Cycle 3): two phases;
- Cloud point [3]: 44 °C
- Cloud point ([3]; listed as Butyl Cellosolve): 44 °C

SMILES: CCOC(=O)CCC1(C)OCC(CO)O1 (stereo not drawn) [EtLGK, glycerol ketal of ethyl levulinic acid]
- Wt % Hydrotrope required to compatibilize phases [1, 7]: 38%
- Wt % Octanoic Acid (resulting, at compatibilization) [1, 7]: 55%
- Wt % Hydrotrope required to compatibilize phases [1, 8]: 59%
- Wt % Octanoic Acid (resulting, at compatibilization) [1, 8]: 29%
- Wt % Hydrotrope required to compatibilize phases [1, 9]: 69%
- Wt % Octanoic Acid (resulting, at compatibilization) [1, 9]: 15%
- Wt % Hydrotrope required to compatibilize phases [1, 10]: 66%
- Wt % Octanoic Acid (resulting, at compatibilization) [1, 10]: 10%
- Wt % Hydrotrope required to compatibilize phases [1, 11]: 58%
- Wt % Octanoic Acid (resulting, at compatibilization) [1, 11]: 4%
- Amount of hydrotrope that produced a single phase [1, 12]: 3.11 grams
- Amount of hydrotrope that produced a single phase [1, 13]: 7.2 grams
- Amount of hydrotrope that produced a single phase [1, 14]: 22.68 grams
- Amount of hydrotrope that produced a single phase [1, 15]: 9.79 grams
- Amount of hydrotrope that produced a single phase [1, 16]: 6.84 grams
- Wt % Hydrotrope required to compatibilize the phases [4, 17]: 78%
- Wt % Soy Methyl Esters (at compatibilization) [4, 17]: 20%
- Wt % Hydrotrope required to compatibilize the phases [4, 18]: 83%
- Wt % Soy Methyl Esters (at compatibilization) [4, 18]: 12%
- Wt % Hydrotrope required to compatibilize the phases [4, 19]: 86%
- Wt % Soy Methyl Esters (at compatibilization) [4, 19]: 7%
- Wt % Hydrotrope required to compatibilize the phases [4, 20]: 86%
- Wt % Soy Methyl Esters (at compatibilization) [4, 20]: 4%
- Wt % Hydrotrope required to compatibilize the phases [4, 21]: 84%
- Wt % Soy Methyl Esters (at compatibilization) [4, 21]: 2%
- Wt % Castor oil (at compatibilization) [5, 22]: 35%
- Wt % Hydrotrope required to compatibilize phases [5, 22]: 61%
- Wt % Castor oil (at compatibilization) [5, 23]: 17%
- Wt % Hydrotrope required to compatibilize phases [5, 23]: 76%
- Wt % Castor oil (at compatibilization) [5, 24]: 9%
- Wt % Hydrotrope required to compatibilize phases [5, 24]: 82%
- Wt % Castor oil (at compatibilization) [5, 25]: 4%
- Wt % Hydrotrope required to compatibilize phases [5, 25]: 86%
- Wt % Castor oil (at compatibilization) [5, 26]: 1%
- Wt % Hydrotrope required to compatibilize phases [5, 26]: 85%
- pH stability of the formulation containing the solvent [6]: underwent significant pH drift downward
- Freeze-thaw visual observation ([2]; Cycle 1): stable;
- Freeze-thaw visual observation ([2]; Cycle 2): gradient;
- Freeze-thaw visual observation ([2]; Cycle 3): gradient;
- Cloudiness on heating [3]: showed no signs of cloudiness
- Cloud point [3]: >100 °C

SMILES: CC1COC(C)(CCCO)O1 (stereo not drawn) [Ketal alcohol (1a)]
- Wt % Hydrotrope required to compatibilize phases [1, 7]: 31%
- Wt % Octanoic Acid (resulting, at compatibilization) [1, 7]: 62%
- Wt % Hydrotrope required to compatibilize phases [1, 8]: 53%
- Wt % Octanoic Acid (resulting, at compatibilization) [1, 8]: 33%
- Wt % Hydrotrope required to compatibilize phases [1, 9]: 54%
- Wt % Octanoic Acid (resulting, at compatibilization) [1, 9]: 23%
- Wt % Hydrotrope required to compatibilize phases [1, 10]: 55%
- Wt % Octanoic Acid (resulting, at compatibilization) [1, 10]: 14%
- Wt % Hydrotrope required to compatibilize phases [1, 11]: 46%
- Wt % Octanoic Acid (resulting, at compatibilization) [1, 11]: 5%
- Amount of hydrotrope that produced a single phase [1, 12]: 2.27 grams
- Amount of hydrotrope that produced a single phase [1, 13]: 5.63 grams
- Amount of hydrotrope that produced a single phase [1, 14]: 11.81 grams
- Amount of hydrotrope that produced a single phase [1, 15]: 6.07 grams
- Amount of hydrotrope that produced a single phase [1, 16]: 4.33 grams
- Wt % Hydrotrope required to compatibilize the phases [4, 17]: 58%
- Wt % Soy Methyl Esters (at compatibilization) [4, 17]: 38%
- Wt % Hydrotrope required to compatibilize the phases [4, 18]: 73%
- Wt % Soy Methyl Esters (at compatibilization) [4, 18]: 19%
- Wt % Hydrotrope required to compatibilize the phases [4, 19]: 81%
- Wt % Soy Methyl Esters (at compatibilization) [4, 19]: 10%
- Wt % Hydrotrope required to compatibilize the phases [4, 20]: 83%
- Wt % Soy Methyl Esters (at compatibilization) [4, 20]: 5%
- Wt % Hydrotrope required to compatibilize the phases [4, 21]: 81%
- Wt % Soy Methyl Esters (at compatibilization) [4, 21]: 2%
- Wt % Castor oil (at compatibilization) [5, 22]: 32%
- Wt % Hydrotrope required to compatibilize phases [5, 22]: 64%
- Wt % Castor oil (at compatibilization) [5, 23]: 21%
- Wt % Hydrotrope required to compatibilize phases [5, 23]: 71%
- Wt % Castor oil (at compatibilization) [5, 24]: 11%
- Wt % Hydrotrope required to compatibilize phases [5, 24]: 79%
- Wt % Castor oil (at compatibilization) [5, 25]: 5%
- Wt % Hydrotrope required to compatibilize phases [5, 25]: 82%
- Wt % Castor oil (at compatibilization) [5, 26]: 2%
- Wt % Hydrotrope required to compatibilize phases [5, 26]: 84%
- Freeze-thaw visual observation ([2]; Cycle 1): stable;
- Freeze-thaw visual observation ([2]; Cycle 2): gradient;
- Freeze-thaw visual observation ([2]; Cycle 3): gradient;
- Freeze-thaw performance overall ([2]; formulation containing the solvent, 3 cycles): performed similarly to or better than the 2-butoxyethanol
- Cloudiness on heating [3]: showed no signs of cloudiness
- Cloud point [3]: >100 °C
